Marks after values point to notes of the source that are not given here.
Columns and labels:
[1] = test system: db/db mice; experiment: Blood sugar decreasing effect in db/db mice (Example 7); assay type: in vivo, mouse; details: for Body weight / Blood sugar level: in feed for a week (MAC 0.05%, AS-103 0.05%, AR-610 0.1%, AF 0.4%, AC 0.05%); for Body weight: control group 44.6 ± 0.9; for Blood sugar level: control group 549.8 ± 21.8; for Blood sugar level, change vs control group / Body weight, change vs control group: in feed for a week, contents as in table
Description: (§1) Powered feed to which ascofuranone (AF) and ascochlorin (AC) as well as its derivatives, 4-0-methylascochlorin (MAC), 4-0-carboxymethylascochlorin (AS-6), and 4-0-nicotinoyl ascochlorin (AS-103) were added to feed at the proportions shown in the table, and the feed were given to db/db mice for a week and then analyzed for blood sugar decreasing effect (8 mice/group).

[2] = test system: Lean; experiment: Body weight and blood sugar in Lean mice (Example 7); assay type: in vivo, mouse; details: for Body weight / Blood sugar level: in feed for a week (MAC 0.05%, AS-103 0.05%, AR-610 0.1%, AF 0.4%, AC 0.05%); for Body weight: control group 20.9 ± 0.8; for Blood sugar level: control group 211.2 ± 7.8; for Blood sugar level, change vs control group / Body weight, change vs control group: in feed for a week, contents as in table
Description: [The procedure below names another variant; the source lists this variant under the same test.] as §1

[3] = test system: Mouse, db/db mouse; experiment: Serum insulin decreasing effect; assay type: in vivo; details: about 0.1% added to feed
[4] = test system: DOCA hypertension rat; experiment: Hypercardia, thickened arteries, edema in organs; assay type: in vivo
Description: (§2) As to prevention/therapy of arteriosclerosis, a big difference is observed in effect between medicaments conceivably effective in improving arteriosclerosis, such as fibrate series medicament, thiazolidine series medicament, probucol, and statin series medicament and a compound of the present invention.

[5] = test system: Mouse, rat, beagle dog, quail, DOCA hypertension rat; experiment: Serum cholesterol decreasing effect; assay type: in vivo; details: incl. rat and quail raised with hyperfat feed
Description: The quails are raised by giving a feed containing 2% cholesterol for 9 months to develop hypercholesteremia, and, in the case of the rats, mineral corticoid and saline are administered to allow them to develop heart and blood vessel disease and then hypercholesteremia.

[6] = test system: quail; experiment: Arteriosclerosis suppressing effect, quail on cholesterol feed; assay type: in vivo; details: poultry feed containing 2% of cholesterol, 9 months, 0.0125 to 0.2% added to feed
Description: as §2

[7] = test system: Zucker rats; experiment: Glucose tolerance test using Zucker rats (Example 6); assay type: in vivo, rat
Description: The effect of 4-O-carboxymethylascochlorin (AS-6) in a glucose tolerance test were checked by using Zucker rats. Zucker control rats, Zucker AS-6 administered rats (20 mg/kg, perorally for a week), and Lean control rats were fasted overnight. Next morning, blood was taken from the caudal vein, and thereafter, 2 g/kg of glucose was perorally administered. Blood was taken from the caudal vein 30, 60 and 120 minutes after the administration and checked for blood sugar (7 mice/group).

[8] = test system: Db/db mouse, Zucker rat; experiment: Insulin sensitivity test; assay type: in vivo; details: feed containing 0.1% for one week, hereditary obese animal
[9] = test system: Db/db mouse, ob/ob mouse; experiment: Improvement of polydipsia and polyurea; assay type: in vivo; details: in feed, hereditary diabetic obese mouse
[10] = test system: Zucker rats; experiment: AS-6 in feed to Zucker rats for 10 weeks (Example 5); assay type: in vivo, rat; details: 0.12% in feed
Description: Zucker rats were divided into two groups. One group was raised with commercially available feed to which 4-O-carboxymethylascochlorin (AS-6) was mixed up to a content of 0.12%. The other group and normal Lean-rat littermate group were raised for 10 weeks with the same commercially available feed containing no AS-6. Thereafter, body weight, white adipose cell weight, blood insulin, blood sugar, and blood lipid were measured (7 mice/group).

[11] = test system: C57BL/6j-ob/ob mice; experiment: AS-6 in feed to ob/ob mice (Example 3); assay type: in vivo, mouse; details: 0.1% in feed, 1 week
Description: C57BL/6j-ob/ob mice, which were model animals of multiple risk factor syndrome, were raised for a week with powered feed in which an ascochlorin derivative, 4-O-carboxymethylascochlorin (AS-6), was mixed in a content of 0.1%. Thereafter, the weight, blood sugar, blood insulin, and blood neutral fat were measured.

[12] = Zucker rats, 20 mg/kg perorally for a week

## COc1c(Cl)c(C)c(C=O)c(O)c1C/C=C(C)/C=C/[C@@]1(C)[C@H](C)CCC(=O)[C@@H]1C [4-O-methylascochlorin]
[1]
  Body weight: 45.5 ± 1.8 g
  Blood sugar level: 478.0 ± 28.3 mg/dL
  Blood sugar level, change vs control group: −13.3%*
  Body weight, change vs control group: ns
[2]
  Body weight: 21.3 ± 0.9 g
  Blood sugar level: 223.1 ± 11.6 mg/dL
  Blood sugar level, change vs control group: ns
  Body weight, change vs control group: ns
[3]
  serum insulin: added in an amount of about 0.1% to feed and given to an animal, it decreases serum
[4]
  edema of various organs including the kidney: such as hypercardia and thickened arteries, and suppresses edema of various
  lesions associated with cardiovascular diseases such as hypercardia and thickened arteries: 4-0-methylascochlorin alleviates lesions associated with cardiovascular diseases
[5]
  serum cholesterol decreasing effect: carboxymethylascochlorin, and ascofuranone exhibits an effect of decreasing serum
[6]
  atherosclerosis of the aorta, hypercholesterolemia, deposition of cholesterol onto the heart and the aorta: the aforementioned changes are suppressed.

## CC(C=CC1(C)C(C)CCC(=O)C1C)=CCc1c(O)c(C=O)c(C)c(Cl)c1OCC(=O)O (stereo not drawn) [AS-6, 4-O-carboxymethylascochlorin]
[7]; 0 minute after glucose loading
  blood sugar, change vs Zucker control group: −19.7%(*)
[7]; 20 mg/kg perorally for a week, 0 minute after glucose loading (fasted overnight), Zucker control 107.5 ± 5.0
  blood sugar: 86.3 ± 4.5
[7]; 20 mg/kg perorally for a week, 30 minutes after glucose loading, Zucker control 235.1 ± 9.6
  blood sugar: 167.5 ± 3.8
[7]; 20 mg/kg perorally for a week, 60 minutes after glucose loading, Zucker control 275.8 ± 13.2
  blood sugar: 220.2 ± 5.0
[7]; 20 mg/kg perorally for a week, 120 minutes after glucose loading, Zucker control 290.3 ± 4.6
  blood sugar: 202.8 ± 3.6
[7]; 30 minutes after glucose loading
  blood sugar, change vs Zucker control group: −28.8%(**)
[7]; 60 minutes after glucose loading
  blood sugar, change vs Zucker control group: −20.2%(*)
[7]; 120 minutes after glucose loading
  blood sugar, change vs Zucker control group: −30.1%(**)
[7]; [12]
  blood sugar level 30, 60, 120 minutes after glucose loading: significant decreases
  decrease of fasting blood sugar level: 19.7%
[1]
  Body weight: 45.3 ± 1.7 g
  Blood sugar level: 335.8 ± 8.5 mg/dL
  Blood sugar level, change vs control group: −38.9%**
  Body weight, change vs control group: ns
[2]
  Body weight: 20.2 ± 0.4 g
  Blood sugar level: 194.1 ± 9.5 mg/dL
  Blood sugar level, change vs control group: ns
  Body weight, change vs control group: ns
[3]
  serum insulin: added in an amount of about 0.1% to feed and given to an animal, it decreases serum
[8]
  sensitivity to insulin: insulin was significantly improved.
[5]
  serum cholesterol decreasing effect: carboxymethylascochlorin, and ascofuranone exhibits an effect of decreasing serum
[9]
  amount of drinking water: obese mouse, the amount of drinking water decreases in a dose-dependent manner,
  amount of sugar excreted in the urine: excreted in the urine significantly decreases.
[10]
  Blood sugar (full feeding), change vs Zucker control group: ns
  Body weight, change vs Zucker control group: ns
  Cholesterol, change vs Zucker control group: ns
  Free fatty acid, change vs Zucker control group: −50.0%
  Insulin, change vs Zucker control group: −23.4%
  Neutral fat, change vs Zucker control group: −49.8%
  Phospholipid, change vs Zucker control group: −14.3%
  White adipose cells, change vs Zucker control group: ns
[10]; Zucker control 1.391 ± 0.110
  Free fatty acid: 0.696 ± 0.069
[10]; Zucker control 4.06 ± 0.09
  White adipose cells: 3.66 ± 0.11
[10]; Zucker control 117.4 ± 4.8
  Cholesterol: 123.6 ± 7.8
[10]; Zucker control 176.3 ± 14.7
  Insulin: 135.1 ± 15.6
[10]; Zucker control 340.8 ± 12.0
  Phospholipid: 292.1 ± 8.9
[10]; Zucker control 362 ± 13
  Body weight: 358 ± 15
[10]; Zucker control 928.6 ± 47.7
  Neutral fat: 466.3 ± 60.2
[10]; Zucker control printed 73.0 ± 14.5
  Blood sugar (full feeding): 174.3 ± 19.0
[10]; Zucker rats
  insulin, free fatty acid, neutral fat and phospholipid: significantly reduced
[11]
  Blood sugar, change vs ob/ob control group: −32.4%*
  Body weight, change vs ob/ob control group: ns
  Cholesterol, change vs ob/ob control group: ns
  Free fatty acid, change vs ob/ob control group: −43.6%**
  Insulin, change vs ob/ob control group: −33.8%
  Neutral fat, change vs ob/ob control group: −61.0%**
[11]; ob/ob control 1.224 ± 0.072
  Free fatty acid: 0.690 ± 0.078 mEq/L
[11]; ob/ob control 48.5 ± 0.6
  Body weight: 47.8 ± 0.6 g
[11]; ob/ob control 73.9 ± 16.7
  Insulin: 48.9 ± 8.2 μU/mL9
[11]; ob/ob control 162.4 ± 16.0
  Neutral fat: 63.2 ± 7.2 mg/dL
[11]; ob/ob control 268.5 ± 24.2
  Cholesterol: 249.7 ± 12.1 mg/dL
[11]; ob/ob control 360.4 ± 44.9
  blood sugar: 243.8 ± 15.6 mg/dL
[11]; ob/ob mice
  risk factors except for body weight and blood cholesterol: significantly reduced
